{"source": "patent US7842812B2", "about": "“Substituted 5-aminomethy1-1H-pyrrole-2-carboxylic acid amides” (Gruenenthal GmbH, priority 2004, dated 2010)", "data": [{"biological_target": "T1, human μ opioid receptor (Homo sapiens, UniProt P35372)", "T1 construct": "purchased NEN, Zaventem, Belgium RB-HOM; host or cells: CHO-K1 cells (membrane preparation)", "T1 sequence (P35372 whole entry)": "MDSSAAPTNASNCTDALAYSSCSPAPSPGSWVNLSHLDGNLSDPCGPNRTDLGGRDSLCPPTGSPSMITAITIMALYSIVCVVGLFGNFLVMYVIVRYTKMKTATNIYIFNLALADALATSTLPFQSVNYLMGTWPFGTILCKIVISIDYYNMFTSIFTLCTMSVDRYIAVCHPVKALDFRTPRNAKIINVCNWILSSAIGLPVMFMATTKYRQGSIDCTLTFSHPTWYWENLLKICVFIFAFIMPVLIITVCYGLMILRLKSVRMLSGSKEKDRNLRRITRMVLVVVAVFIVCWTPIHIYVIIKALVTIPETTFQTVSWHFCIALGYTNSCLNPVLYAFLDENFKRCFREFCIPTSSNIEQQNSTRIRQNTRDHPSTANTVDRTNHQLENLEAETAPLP", "assay": "Affinity for human μ opioid receptor ([3H]-naloxone displacement, CHO-K1 membrane preparation, SPA)", "settings": "percentage inhibition of specific [3H]-naloxone binding; compound concentration 1 μmol/l; read-out: OR μ1 human naloxone inhibition [%]", "description": "a) Method for Determining Affinity for Human μ Opioid Receptor\nReceptor affinity for the human μ opioid receptor is determined in a homogeneous batch in microtitre plates. […] Once the ninety minute incubation time had elapsed, the microtitre plates were centrifuged off for 20 minutes at 1000 g and the radioactivity measured in a β-Counter (Microbeta-Trilux, from PerkinElmer Wallac, Freiburg, Germany). The percentage displacement of the radioactive ligand from its binding to the human μ opiate receptor is determined at a concentration of the compounds to be tested of 1 μmol/l and stated as percentage inhibition of specific binding. […]\nThe affinity of the 5-aminomethyl-1H-pyrrole-2-carboxylic acid amides according to the invention for the μ receptor was determined as described above.", "units": {"inhibition at 1 µM": "%"}, "values": [{"molecule": "CC1CCCCN1Cc1ccc(C(=O)N2CCCC2)n1C", "note": "(stereo not drawn) [Example 3, [1-Methyl-5-(2-methyl-piperidin-1-ylmethyl)-1H-pyrrol-2-yl]-pyrrolidin-1-yl methanone]", "inhibition at 1 µM": 83}, {"molecule": "CC1CCCCN1Cc1ccc(C(=O)N2CCCCC2)n1C", "note": "(stereo not drawn) [Example 10, [1-Methyl-5-(2-methyl-piperidin-1-ylmethyl)-1H-pyrrol-2-yl]-piperidin-1-yl methanone]", "inhibition at 1 µM": 86}]}, {"biological_target": "T2, 5-HT transporter (Rattus norvegicus, UniProt P31652)", "T2 construct": "from tissue; host or cells: rat brain synaptosomes (P2 fraction) from medulla and pons", "T2 sequence (P31652 whole entry)": "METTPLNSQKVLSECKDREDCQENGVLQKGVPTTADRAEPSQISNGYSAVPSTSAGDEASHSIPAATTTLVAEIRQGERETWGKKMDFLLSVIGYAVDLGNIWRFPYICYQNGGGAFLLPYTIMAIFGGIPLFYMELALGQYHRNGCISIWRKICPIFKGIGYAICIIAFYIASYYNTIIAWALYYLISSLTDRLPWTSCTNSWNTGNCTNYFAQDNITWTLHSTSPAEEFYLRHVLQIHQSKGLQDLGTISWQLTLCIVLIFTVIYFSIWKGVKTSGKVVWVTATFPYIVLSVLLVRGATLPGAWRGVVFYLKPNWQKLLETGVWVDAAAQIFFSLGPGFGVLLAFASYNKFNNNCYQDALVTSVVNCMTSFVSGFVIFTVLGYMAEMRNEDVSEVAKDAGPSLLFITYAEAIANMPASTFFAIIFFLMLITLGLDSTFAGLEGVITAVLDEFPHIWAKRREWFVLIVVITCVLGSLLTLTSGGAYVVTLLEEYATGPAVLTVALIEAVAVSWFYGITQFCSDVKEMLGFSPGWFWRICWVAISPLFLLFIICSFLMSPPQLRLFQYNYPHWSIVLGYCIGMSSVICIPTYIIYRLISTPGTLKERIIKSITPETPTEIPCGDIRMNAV", "assay": "5-HT uptake inhibition in rat brain synaptosomes (medulla and pons)", "assay_type": "biochemical", "settings": "10 μM", "source_text": "(§1) b) Method for Determining Noradrenalin and 5-HT Uptake Inhibition:\n(§2) Synaptosomes from rat brain regions are freshly isolated for in vitro studies, as described in the publication “The isolation of nerve endings from brain” by E. G. Gray and V. P. Whittaker, J. Anatomy 96, pages 79-88, 1962, the disclosure of which is hereby incorporated by reference. The tissue (hypothalamus for the determination of noradrenalin uptake inhibition and medulla and pons for the determination of 5-HT uptake inhibition) is homogenized in ice-cooled 0.32 M sucrose (100 mg of tissue/1 ml) in a glass homogenizer with Teflon pestle using five complete up and down strokes at 840 revolutions/minute. The homogenate is centrifuged at 4° C. for 10 minutes at 1000 g. After subsequent centrifugation at 17000 g for 55 minutes, the synaptosomes (P2 fraction) are obtained, which are resuspended in 0.32 M […] (0.5 ml/100 mg of original weight).\nThe particular uptake is measured in a 96-well microtitre plate. The volume is 250 μl and the incubation proceeds at room temperature (approx. 20-25° C.) under an O2 atmosphere. The incubation time is 7.5 minutes for [^3H]-NA and 5 minutes for [^3H]-5-HT. The 96 samples are then filtered through a Unifilter GF/B® microtitre plate (Packard) and washed with […] of incubated buffer using a “Brabdel MPXRI-96T Cell-Harvester”. The Unifilter GF/B plate is dried for 1 hour at 55° C. […] After sealing with a Top Seal® (Packard) and establishing an equilibrium (around 5 hours), radioactivity is determined in a “Trilux 1450 Microbeta” (Wallac).\nThe quantity of protein used in the above determination corresponds to the values known from the literature, as for example described in “Protein measurement with the folin phenol reagent”, Lowry et al., J. Biol. Chem., 193, 265-275, 1951. […]\n(§3) The 5-HT reuptake inhibition and noradrenalin reuptake inhibition of the 5-aminomethyl-1H-pyrrole-2-carboxylic acid amides according to the invention were determined as described above.", "units": {"5HT uptake inhibition": "% inhibition"}, "values": [{"molecule": "CC1CCCCN1Cc1ccc(C(=O)N2CCCC2)n1C", "note": "(stereo not drawn) [Example 3, [1-Methyl-5-(2-methyl-piperidin-1-ylmethyl)-1H-pyrrol-2-yl]-pyrrolidin-1-yl methanone]", "5HT uptake inhibition": 52}, {"molecule": "CC1CCN(Cc2ccc(C(=O)N(C)Cc3ccccc3)n2C)CC1", "note": "[Example 1, 1-Methyl-5-(4-methyl-piperidin-1-ylmethyl)-1H-pyrrole-2-carboxylic acid benzyl-methyl amide]", "5HT uptake inhibition": 70}, {"molecule": "Cn1c(CN2CCCCCC2)ccc1C(=O)N1CCCC1", "note": "[Example 2, (5-Azepan-1-ylmethyl-1-methyl-1H-pyrrol-2-yl)-pyrrolidin-1-yl methanone]", "5HT uptake inhibition": 60}]}, {"biological_target": "T3, NA transporter (Rattus norvegicus, UniProt Q63380)", "T3 construct": "from tissue; host or cells: rat brain synaptosomes (P2 fraction) from hypothalamus", "T3 sequence (Q63380 1-617)": "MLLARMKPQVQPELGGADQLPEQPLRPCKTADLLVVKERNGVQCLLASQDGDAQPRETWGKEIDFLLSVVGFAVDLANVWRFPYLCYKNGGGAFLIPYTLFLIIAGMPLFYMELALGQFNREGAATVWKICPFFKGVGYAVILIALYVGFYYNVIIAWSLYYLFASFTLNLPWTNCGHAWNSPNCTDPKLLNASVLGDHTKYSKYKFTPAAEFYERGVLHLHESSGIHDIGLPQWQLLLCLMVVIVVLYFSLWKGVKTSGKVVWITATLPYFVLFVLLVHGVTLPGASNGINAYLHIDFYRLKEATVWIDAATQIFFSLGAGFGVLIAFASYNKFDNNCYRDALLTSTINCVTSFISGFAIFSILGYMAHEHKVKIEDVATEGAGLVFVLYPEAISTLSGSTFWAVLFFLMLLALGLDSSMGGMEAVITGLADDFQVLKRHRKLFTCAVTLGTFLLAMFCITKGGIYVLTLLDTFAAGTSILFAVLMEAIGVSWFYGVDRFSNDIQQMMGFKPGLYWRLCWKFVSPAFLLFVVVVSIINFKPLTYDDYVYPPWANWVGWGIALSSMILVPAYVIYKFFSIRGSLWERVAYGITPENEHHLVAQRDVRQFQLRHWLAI", "assay": "Noradrenalin (NA) uptake inhibition in rat brain synaptosomes (hypothalamus)", "assay_type": "biochemical", "settings": "10 μM", "source_text": "as §1, §2\nThe particular uptake is measured in a 96-well microtitre plate. The volume is 250 μl and the incubation proceeds at room temperature (approx. 20-25° C.) under an O2 atmosphere. The incubation time is 7.5 minutes for [^3H]-NA and 5 minutes for [^3H]-5-HT. The 96 samples are then filtered through a Unifilter GF/B® microtitre plate (Packard) and washed with […] of incubated buffer using a “Brabdel MPXRI-96T Cell-Harvester”. The Unifilter GF/B plate is dried for 1 hour at 55° C. The plate is then sealed with a Back Seal® (Packard) and 35 μl of scintillation fluid are added per well (Ultima Gold®, Packard). After sealing with a Top Seal® (Packard) and establishing an equilibrium (around 5 hours), radioactivity is determined in a “Trilux 1450 Microbeta” (Wallac).\nThe quantity of protein used in the above determination corresponds to the values known from the literature, as for example described in “Protein measurement with the folin phenol reagent”, Lowry et al., J. Biol. Chem., 193, 265-275, 1951. A detailed description of the method may additionally be found in the literature, for example in M. Ch. Frink, H.-H. Hennies, W. Engelberger, M. Haurand and B. Wilffert (1996) Arzneim.-Forsch./Drug Res. 46 (III), 11, 1029-1036, the disclosures of which are hereby incorporated by reference.\nThe following characteristics were determined for the NA or 5-HT transporter: NA uptake: Km=0.32±0.11 μM 5HT uptake: Km=0.084±0.011 μM. c) Investigation of Analgesic Efficacy by the Writhing Test\nas §3", "units": {"NA uptake inhibition": "% inhibition"}, "values": [{"molecule": "CN(C(=O)c1ccc(CN2CCC(Cc3ccccc3)CC2)n1C)C1CCCCC1", "note": "[Example 7, 5-(4-Benzyl-piperidin-1-ylmethyl)-1-methyl-1H-pyrrole-2-carboxylic acid cyclohexyl-methyl amide]", "NA uptake inhibition": 62}, {"molecule": "CC1CCCCN1Cc1ccc(C(=O)N(C)Cc2ccccc2)n1C", "note": "(stereo not drawn) [Example 5, 1-Methyl-5-(2-methyl-piperidin-1-ylmethyl)-1H-pyrrole-2-carboxylic acid benzyl-methyl amide]", "NA uptake inhibition": 81}, {"molecule": "CC1CCN(Cc2ccc(C(=O)N(C)Cc3ccccc3)n2C)CC1", "note": "[Example 1, 1-Methyl-5-(4-methyl-piperidin-1-ylmethyl)-1H-pyrrole-2-carboxylic acid benzyl-methyl amide]", "NA uptake inhibition": 81}, {"molecule": "CCOC(=O)C1CCN(Cc2ccc(C(=O)N(Cc3ccccc3)Cc3ccccc3)n2C)CC1", "note": "[Example 6, 1-(5-Dibenzylcarbamoyl-1-methyl-1H-pyrrol-2-ylmethyl)-piperidine-4-carboxylic acid ethyl ester]", "NA uptake inhibition": 74}, {"molecule": "1-Methyl-5-pyrrolidin-1-ylmethyl-1H-pyrrole-2-carboxylic acid benzyl amide [Example 4]", "NA uptake inhibition": 82}, {"molecule": "Cn1c(CN2CCC(Cc3ccccc3)CC2)ccc1C(=O)N1CCCCC1", "note": "[Example 8, [5-(4-Benzyl-piperidin-1-ylmethyl)-1-methyl-1H-pyrrol-2-yl]-piperidin-1-yl methanone]", "NA uptake inhibition": 61}, {"molecule": "CC1CCCCN1Cc1ccc(C(=O)N(Cc2ccccc2)C(C)C)n1C", "note": "(stereo not drawn) [Example 9, 1-Methyl-5-(2-methyl-piperidin-1-ylmethyl)-1H-pyrrole-2-carboxylic acid benzyl-isopropyl amide]", "NA uptake inhibition": 59}]}]}
